PubChem BioAssay (NCI)
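Protocol summary: plate cells (96-well), add compound at 5 concentrations, incubate 48 h, interpolate endpoints linearly. GI50 = concentration required for 50% inhibition of growth. TGI marks complete inhibition of growth.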

Assays:
Experiment in all cases: inhibition of tumour cell growth, NCI panel, 48 h
[1] = tested on: 786-0 renal
[2] = tested on: COLO 205 colon
[3] = tested on: HL-60(TB) leukemia
[4] = tested on: LOX IMVI melanoma
[5] = tested on: RXF 393 renal
[6] = tested on: SK-MEL-28 melanoma
[7] = tested on: SK-OV-3 ovarian
[8] = tested on: SR leukemia
[9] = tested on: TK-10 renal
[10] = tested on: UO-31 renal

| SMILES | TGI [1] | TGI [2] | TGI [3] | TGI [4] | TGI [5] | TGI [6] | TGI [7] | TGI [8] | TGI [9] | TGI [10] | GI50 [3] | GI50 [4] | GI50 [8] |
| --- | --- | --- | --- | --- | --- | --- | --- | --- | --- | --- | --- | --- | --- |
| O=S(=O)(O)CCCc1cccc2ccccc12 | > 100 µM | > 100 µM | > 100 µM | > 100 µM | > 100 µM | > 100 µM | > 100 µM | > 100 µM | > 100 µM | > 100 µM |  |  |  |
| CC(C)(C)OC(=O)N(CCCCN(CCCNC(=O)C(F)(F)F)C(=O)OC(C)(C)C)CCCNC(=O)C(F)(F)F | > 100 µM | > 100 µM | > 100 µM | > 100 µM | > 100 µM | > 100 µM | > 100 µM | > 100 µM | > 100 µM | > 100 µM |  |  |  |
| O=[N+]([O-])C[C@@]12O[C@]3(O)C4C5CC(C6C5C3C61)C42 (stereo partly drawn) | > 100 µM | > 100 µM | > 100 µM | > 100 µM | > 100 µM | > 100 µM | > 100 µM | > 100 µM | > 100 µM | > 100 µM |  |  |  |
| COC[C@@H](N=CC(C)(C)C)C(C)C | > 100 µM | > 100 µM | > 100 µM | > 100 µM | > 100 µM | > 100 µM | > 100 µM | > 100 µM | > 100 µM | > 100 µM |  |  |  |
| NS(=O)(=O)c1ccc(/C=C/c2ccc(O)c(O)c2)cc1 | > 100 µM | 53.8 µM | > 100 µM | > 100 µM | > 100 µM | 78.6 µM | 48.8 µM | 51.3 µM | > 100 µM | 35 µM | 16.3 µM | 29.9 µM | 12.7 µM |
| Brc1ccc2[nH]cc(-c3csc(-c4c[nH]c5ccccc45)n3)c2c1 | 5.27 µM | 7.72 µM | 14.2 µM | 4.5 µM | 11.2 µM | 15.3 µM | 20.7 µM | 10.4 µM | 12 µM | 11.3 µM |  |  |  |
| COc1cc(OC)cc(Oc2nc3ccccc3nc2C(F)(F)F)c1 | > 100 µM | > 100 µM | > 100 µM | > 100 µM | > 100 µM | > 100 µM | > 100 µM | > 100 µM | > 100 µM | > 100 µM |  |  |  |
| CN1CCc2c([nH]c3ccccc23)C1 | > 100 µM | > 100 µM | > 100 µM | > 100 µM | > 100 µM | > 100 µM | > 100 µM | > 100 µM | > 100 µM | > 100 µM |  |  |  |
| O=[N+]([O-])c1ccc(CN(CCCl)OCCCl)cc1 | > 100 µM | > 100 µM | > 100 µM | > 100 µM | > 100 µM | > 100 µM | > 100 µM | > 100 µM | > 100 µM | > 100 µM |  |  |  |
| O=c1oc2ccc3ccccc3c2cc1-c1nc2ccccc2s1 | > 100 µM | > 100 µM | > 100 µM | > 100 µM | > 100 µM | > 100 µM | > 100 µM | > 21.5 µM | > 100 µM | > 100 µM |  |  |  |
| COC(=O)C1=C(OC(=O)/C(=C/c2ccc(Cl)cc2)c2ccc(Cl)cc2)C(C(=O)OC)[C@@]2(O)[C@@H](C(=O)OC)[C@H](C)C[C@@H]1[C@@H]2C(=O)OC (stereo partly drawn) | > 100 µM | > 100 µM | > 100 µM | > 100 µM | > 100 µM | > 100 µM | > 100 µM | > 100 µM | > 100 µM | > 100 µM |  |  |  |
| O=C1C=CC(=O)c2c1ccc1c3ccccc3n(CCCCCn3c4ccccc4c4ccc5c(c43)C(=O)C=CC5=O)c21 | 14.3 µM | 34.9 µM | 3.23 µM | 35 µM | 21.1 µM | 31.5 µM | > 100 µM | 6.22 µM | 26.8 µM | 16.4 µM |  |  |  |
| C=C(Cl)C(=CCl)CCC(Br)C(C)(C)Cl (mixture of isomers) | > 10 µM | > 10 µM | > 10 µM | > 10 µM | > 10 µM | > 10 µM | > 10 µM | > 10 µM | > 10 µM | > 10 µM |  |  |  |
| CC(C)(C)OC(=O)NC1CCCCC1NC(=O)C(=O)NC1CCCCC1NC(=O)OC(C)(C)C (stereo not drawn) | > 100 µM | > 100 µM | > 100 µM | > 100 µM | 38.8 µM | > 100 µM | > 100 µM | > 100 µM | > 100 µM | > 100 µM |  |  |  |
| CN(C)c1ccc(/C=c2/c3ccccc3n3c2c2c([n+]3C)CCCC2)cc1 | 3.24 µM | 0.168 µM | 0.363 µM | 1.39 µM | 0.616 µM | 2.06 µM | 2.07 µM | 1.06 µM | 1.55 µM | 6.5 µM |  |  |  |
| Fc1ccc2c(c1)nc1n2C(c2c(Cl)cccc2Cl)SC1 (stereo not drawn) | 29.5 µM | 32.9 µM | 62.3 µM | 28.2 µM | 31.9 µM | 24.3 µM | 28.3 µM | > 100 µM | 31.6 µM | 28.7 µM |  |  |  |
